The values that follow come from patent US6881741B2 (ViroChem Pharma Inc., priority 2001, dated 2005).

Each structure is given as a SMILES string. Where a name gives a salt, the structure may show the parent alone. Read-outs that look alike come from different tables or passages of the source.

This test has as its target recombinant HCV NS5B (HCV RNA-dependent RNA polymerase) (Hepatitis C virus genotype 1b, UniProt P26663). Briefly: biochemical.
[1] abbreviates: related polymerase activity (Example 27 list), read-out: IC50.
[2] abbreviates: HCV polymerase activity, list of compounds of Example 27, read-out: IC50 (polymerase activity).

Sequence of recombinant HCV NS5B (HCV RNA-dependent RNA polymerase) (P26663 2420-3010 limits assumed): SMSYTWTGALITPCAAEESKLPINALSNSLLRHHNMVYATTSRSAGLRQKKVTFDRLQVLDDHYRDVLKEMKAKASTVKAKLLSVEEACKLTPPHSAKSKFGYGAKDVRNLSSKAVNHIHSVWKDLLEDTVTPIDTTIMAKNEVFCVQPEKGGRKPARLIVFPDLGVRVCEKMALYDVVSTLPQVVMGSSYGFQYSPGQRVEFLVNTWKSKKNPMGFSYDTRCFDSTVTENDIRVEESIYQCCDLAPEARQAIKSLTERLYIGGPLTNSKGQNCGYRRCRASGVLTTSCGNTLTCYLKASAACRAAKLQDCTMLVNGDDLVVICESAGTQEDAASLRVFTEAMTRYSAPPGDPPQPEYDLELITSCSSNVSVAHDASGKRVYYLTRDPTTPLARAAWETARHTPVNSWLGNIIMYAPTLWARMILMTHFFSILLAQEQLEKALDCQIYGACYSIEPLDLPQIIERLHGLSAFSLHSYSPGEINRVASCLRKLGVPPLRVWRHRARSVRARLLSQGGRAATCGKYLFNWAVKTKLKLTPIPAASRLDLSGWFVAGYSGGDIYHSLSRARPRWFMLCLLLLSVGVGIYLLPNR

As usually defined, the IC50 is the concentration that gives 50% inhibition. As for `CC(C)c1ccc(S(=O)(=O)Nc2cc(-c3ccccc3)sc2C(=O)O)cc1` [Compound 43, 3-(4-ISOPROPYL-BENZENESULFONYLAMINO)-5-PHENYL-THIOPHENE-2-CARBOXYLIC ACID], the 50% inhibitory concentration (IC50) under setting [1] fell in the range of 5 to 20 µM.
With `CC1CCC(C(=O)N(c2cc(-c3ccc(F)cc3)sc2C(=O)O)C(C)C)CC1` (centres unmarked) [Compound 559, 5-(4-FLUORO-PHENYL)-3-[ISOPROPYL-(4- METHYL-CYCLOHEXANECARBONYL)- AMINO]-THIOPHENE-2-CARBOXYLIC ACID], the IC50 under setting [2] is less than 5 µM.
On to `CN(C(=O)c1ccccc1Br)c1cc(-c2ccccc2)sc1C(=O)O` [Compound 187, 3-[(2-BROMO-BENZOYL)-METHYL-AMINO]-5-PHENYL-THIOPHENE-2-CARBOXYLIC ACID], for which the IC50 under setting [1] lay in the range of 5 to 20 µM.
As for `Cc1cccc(C)c1S(=O)(=O)Nc1cc(-c2ccccc2)sc1C(=O)O` [Compound 285, 3-(2,6-DIMETHYL-BENZENESULFONYLAMINO)-5-PHENYL-THIOPHENE-2-CARBOXYLIC ACID], the IC50 under setting [1] was less than 5 µM.
Same read-out and setting: for `O=C(O)c1sc(-c2ccc(Cl)cc2)cc1NS(=O)(=O)c1ccccn1` [Compound 116, 5-(4-CHLORO-PHENYL)-3-(PYRIDINE-2-SULFONYLAMINO)-THIOPHENE-2-CARBOXYLIC ACID] the value was 5 to 20 µM.
For `CCCC(=O)N(CC)c1cc(-c2ccccc2)sc1C(=O)O` [Compound 493, 3-(BUTYRYL-ETHYL-AMINO)-5-PHENYL- THIOPHENE-2-CARBOXYLIC ACID], under setting [2], the IC50 is 5 to 20 µM.
Turning to `CC(C)N(C(=O)c1ccc(Cl)cc1F)c1cc(-c2ccccc2)sc1C(=O)O` [Compound 307, 3-[(4-CHLORO-2-FLUORO-BENZOYL)- ISOPROPYL-AMINO]-5-PHENYL- THIOPHENE-2-CARBOXYLIC ACID], the half-inhibitory concentration (IC50) under setting [1] was less than 5 µM.
Regarding `CC1CCC(C(=O)N(c2cc(-c3ccccc3)sc2C(=O)O)C(C)C)C(O)C1` (centres unmarked) [Compound 402, 3-[(2-HYDROXY-4-METHYL- CYCLOHEXANECARBONYL)-ISOPROPYL- AMINO]-5-PHENYL-THIOPHENE-2- CARBOXYLIC ACID], under setting [2], the IC50 is less than 5 µM.
With `CC1CCC(C(=O)N(c2cc(-c3cccc([N+](=O)[O-])c3)sc2C(=O)O)C(C)C)CC1` (centres unmarked) [Compound 383, 3-[ISOPROPYL-(4-METHYL- CYCLOHEXANECARBONYL)-AMINO]-5-(3- NITRO-PHENYL)-THIOPHENE-2- CARBOXYLIC ACID], the half-maximal inhibitory concentration (IC50) under setting [1] is less than 5 µM.
On to `CC(=O)c1ccc(-c2cc(N(C(=O)c3ccc(Cl)cc3Cl)C(C)C)c(C(=O)O)s2)s1` [Compound 358, 5′-ACETYL-4-[(2,4-DICHLORO-BENZOYL)- ISOPROPYL-AMINO]-[2,2′]BITHIOPHENYL- 5-CARBOXYLIC ACID], for which the concentration for half-maximal inhibition (IC50) under setting [1] is less than 5 µM.
Still for that read-out and setting: in the case of `O=C(O)c1sc(-c2ccccc2)cc1NS(=O)(=O)c1ccc(Cl)cc1Cl` [Compound 7, 3-(2,4-DICHLORO-BENZENESULFONYLAMINO)-5-PHENYL-THIOPHENE-2-CARBOXYLIC ACID] it was less than 5 µM; in that of `Cc1cccc(N2CCN(C(=O)Nc3cc(-c4ccccc4)sc3C(=O)O)CC2)n1` [Compound 182, 3-{[4-(6-METHYL-PYRIDIN-2-YL)-PIPERAZINE-1-CARBONYL]-AMINO}-5-PHENYL-THIOPHENE-2-CARBOXYLIC ACID HYDROCHLORIDE], 5 to 20 µM.
Same read-out and setting: for `Cc1ccc(C(=O)N(CCO)c2cc(-c3ccccc3)sc2C(=O)O)cc1` [Compound 203, 3-[(2-HYDROXY-ETHYL)-(4-METHYL-BENZOYL)-AMINO]-5-PHENYL-THIOPHENE-2-CARBOXYLIC ACID] the value was less than 5 µM.
Same read-out and setting: for `Cc1ccccc1S(=O)(=O)Nc1cc(CCc2ccccc2)sc1C(=O)O` [Compound 120, 5-PHENETHYL-3-(TOLUENE-2-SULFONYLAMINO)-THIOPHENE-2-CARBOXYLIC ACID] the value was 5 to 20 µM; for `O=C(O)c1sc(-c2ccccc2)cc1N(Cc1ccc(-c2ccc(F)c(Cl)c2)s1)C(=O)c1ccc(Cl)cc1Cl` [Compound 111, 3-[[5-(3-CHLORO-4-FLUORO-PHENYL)-THIOPHEN-2-YLMETHYL]-(2,4-DICHLORO-BENZOYL)-AMINO]-5-PHENYL-THIOPHENE-2-CARBOXYLIC ACID], less than 5 µM.
As for `CC(C)N(C(=O)c1ccc(Cl)cc1Cl)c1c(C(=O)O)sc(-c2ccccc2)c1F` [Compound 542, 3-[(2,4-DICHLORO-BENZOYL)- ISOPROPYL-AMINO]-4-FLUORO-5- PHENYL-THIOPHENE-2-CARBOXYLIC ACID], the half-maximal inhibitory concentration (IC50) under setting [2] lay in the range of 5 to 20 µM.
`O=C(O)c1sc(-c2ccccc2)cc1NC(=O)N1CCN(c2ccc([N+](=O)[O-])cc2)CC1` [Compound 114, 3-{[4-(4-NITRO-PHENYL)-PIPERAZINE-1-CARBONYL]-AMINO}-5-PHENYL-THIOPHENE-2-CARBOXYLIC ACID]: the IC50 under setting [1] is less than 5 µM.
Same read-out and setting: in the case of `CN(C(=O)CCC1CCCC1)c1cc(-c2ccccc2)sc1C(=O)O` [Compound 384, 3-[(3-CYCLOPENTYL-PROPIONYL)- METHYL-AMINO]-5-PHENYL-THIOPHENE- 2-CARBOXYLIC ACID] it was less than 5 µM.
On to `CCC(=O)N(Cc1ccc(Cl)cc1)c1cc(-c2ccccc2)sc1C(=O)O` [Compound 456, 3-[(4-CHLORO-BENZYL)-PROPIONYL- AMINO]-5-PHENYL-THIOPHENE-2- CARBOXYLIC ACID], for which the half-inhibitory concentration (IC50) under setting [2] was less than 5 µM.
For the compound `CC(C)C(=O)N(Cc1ccc(C(C)(C)C)cc1)c1cc(-c2ccccc2)sc1C(=O)O` [Compound 437, 3-[(4-TERT-BUTYL-BENZYL)- ISOBUTYRYL-AMINO]-5-PHENYL- THIOPHENE-2-CARBOXYLIC ACID], the 50% inhibitory concentration (IC50) under setting [2] lay in the range of 5 to 20 µM.
Same read-out and setting: in the case of `CCCC(=O)N(Cc1cccc(C)c1)c1cc(-c2ccccc2)sc1C(=O)O` [Compound 446, 3-[BUTYRYL-(3-METHYL-BENZYL)- AMINO]-5-PHENYL-THIOPHENE-2- CARBOXYLIC ACID] it was 5 to 20 µM.
In the case of `Cc1ccc(C(=O)N(c2cc(-c3ccccc3)sc2C(=O)O)C(C)C)c(C)c1` [Compound 262, 3-[(2,4-DIMETHYL-BENZOYL)-ISOPROPYL-AMINO]-5-PHENYL-THIOPHENE-2-CARBOXYLIC ACID], the IC50 under setting [1] is less than 5 µM.
On to `CC(C)CC(=O)N(Cc1ccc(Cl)cc1)c1cc(-c2ccccc2)sc1C(=O)O` [Compound 458, 3-[(4-CHLORO-BENZYL)-(3-METHYL- BUTYRYL)-AMINO]-5-PHENYL- THIOPHENE-2-CARBOXYLIC ACID], for which the IC50 under setting [2] lay within 5 to 20 µM.
With `Cc1ccc(S(=O)(=O)Nc2cc(-c3ccc(C#N)cc3)sc2C(=O)O)c(C)c1` [Compound 288, 5-(4-CYANO-PHENYL)-3-(2,4-DIMETHYL-BENZENESULFONYLAMINO)-THIOPHENE-2-CARBOXYLIC ACID], the 50% inhibitory concentration (IC50) under setting [1] was less than 5 µM.
In the case of `CC(C)(C)OC(=O)N1CCC(N(C(=O)c2ccc(Cl)cc2Cl)c2cc(-c3ccccc3)sc2C(=O)O)CC1` [Compound 365, 4-[(2-CARBOXY-5-PHENYL-THIOPHEN-3- YL)-(2,4-DICHLORO-BENZOYL)-AMINO]- PIPERIDINE-1-CARBOXYLIC ACID #TERT!-BUTYL ESTER], the half-inhibitory concentration (IC50) under setting [1] is less than 5 µM.
On to `CCC(=O)N(Cc1ccc(C(C)(C)C)cc1)c1cc(-c2ccccc2)sc1C(=O)O` [Compound 417, 3-[(4-TERT-BUTYL-BENZYL)-PROPIONYL- AMINO]-5-PHENYL-THIOPHENE-2- CARBOXYLIC ACID], for which, under setting [2], the IC50 fell in the range of 5 to 20 µM.
The same measure, in the same setting: for `CC(C)N(C(=O)C12CC3CC(CC(C3)C1)C2)c1cc(-c2ccccc2)sc1C(=O)O` [Compound 424, 3-[(ADAMANTANE-1-CARBONYL)- ISOPROPYL-AMINO]-5-PHENYL- THIOPHENE-2-CARBOXYLIC ACID] the value was greater than 20 µM.
Regarding `Cc1ccc(S(=O)(=O)Nc2cc(-c3ccccc3)sc2C(=O)O)c(C)c1` [Compound 136, 3-(2,4-DIMETHYL-BENZENESULFONYLAMINO)-5-PHENYL-THIOPHENE-2-CARBOXYLIC ACID], the half-inhibitory concentration (IC50) under setting [1] is less than 5 µM.
Turning to `Cc1ccc(C(=O)N(c2cc(-c3cccc(C(F)(F)F)c3)sc2C(=O)O)C(C)C)c(OCc2ccccc2)c1` [Compound 406, 3-[(2-BENZLOXY-4-METHYL-BENZOYL)- ISOPROPYL-AMINO]-5-(3- TRIFLUOROMETHYL-PHENYL)- THIOPHENE-2-CARBOXYLIC ACID], the IC50 under setting [2] is less than 5 µM.
For `Cc1ccccc1S(=O)(=O)Nc1cc(-c2ccccc2C(=O)O)sc1C(=O)O` [Compound 115, 5-(2-CARBOXY-PHENYL)-3-(TOLUENE-2-SULFONYLAMINO)-THIOPHENE-2-CARBOXYLIC ACID], the IC50 under setting [1] was in the range of 5 to 20 µM.
Regarding `CC1CCC(C(=O)N(c2cc(-c3ccccc3)sc2C(=O)O)C2COCOC2)CC1` (centres unmarked) [Compound 554, 3-[[1,3]DIOXAN-5-YL-(4-METHYL- CYCLOHEXANECARBONYL)-AMINO]-5- PHENYL-THIOPHENE-2-CARBOXYLIC ACID], the IC50 under setting [2] was less than 5 µM.
As to `C=CCN(C(=O)Cc1cccc(C)c1)c1cc(-c2ccccc2)sc1C(=O)O` [Compound 354, 3-[ALLYL-(2-M-TOLYL-ACETYL)-AMINO]-5- PHENYL-THIOPHENE-2-CARBOXYLIC ACID], under setting [1], the half-maximal inhibitory concentration (IC50) fell in the range of 5 to 20 µM.
The same measure, in the same setting: in the case of `Cc1ccccc1S(=O)(=O)Nc1cc(-c2ccc(N)cc2)sc1C(=O)O` [Compound 165, 5-(4-AMINO-PHENYL)-3-(TOLUENE-2-SULFONYLAMINO)-THIOPHENE-2-CARBOXYLIC ACID] it was 5 to 20 µM; in that of `CCN(C(=O)C1CCC1)c1cc(-c2ccccc2)sc1C(=O)O` [Compound 393, 3-(CYCLOBUTANECARBONYL-ETHYL- AMINO)-5-PHENYL-THIOPHENE-2- CARBOXYLIC ACID], 5 to 20 µM.
The same measure, in the same setting: in the case of `CC(=O)c1ccc(S(=O)(=O)Nc2cc(-c3ccccc3)sc2C(=O)O)cc1` [Compound 140, 3-(4-ACETYL-BENZENESULFONYLAMINO)-5-PHENYL-THIOPHENE-2-CARBOXYLIC ACID] it was 5 to 20 µM; in that of `C=CCN(C(=O)Cc1ccc(Cl)cc1)c1cc(-c2ccccc2)sc1C(=O)O` [Compound 339, 3-(ALLYL-[2-(4-CHLORO-PHENYL)- ACETYL]-AMINO)-5-PHENYL-THIOPHENE- 2-CARBOXYLIC ACID], 5 to 20 µM; in that of `CCCCc1ccc(-c2cc(NS(=O)(=O)c3ccccc3C)c(C(=O)O)s2)cc1` [Compound 231, 5-(4-BUTYL-PHENYL)-3-(TOLUENE-2-SULFONYLAMINO)-THIOPHENE-2-CARBOXYLIC ACID], less than 5 µM.
Consider `CO[C@H]1CCCCC1N(C(=O)c1ccc(Cl)cc1Cl)c1cc(-c2ccccc2)sc1C(=O)O` (some centres unmarked) [Compound 534, 3-[(2-DICHLORO-BENZOYL)-(2- METHOXY-CYCLOHEXYL)-AMINO]-5- PHENYL-THIOPHENE-2- CARBOXYLIC ACID], for which, under setting [2], the 50% inhibitory concentration (IC50) is less than 5 µM.
